In ChEMBL document CHEMBL3885881, “DrugMatrix”:

Species on record: Rattus norvegicus
Type: toxicity, organism-based, Sprague-Dawley
Conditions: in vivo, po, route oral GAVAGE, […]; for ABSOLUTE EOSINOPHIL / ABSOLUTE LYMPHOCYTE / ABSOLUTE MONOCYTE / ABSOLUTE SEGMENTED NEUTROPHIL / BASOPHIL / EOSINOPHIL / ERYTHROCYTE COUNT / HEMATOCRIT / HEMOGLOBIN / LEUKOCYTE COUNT / LYMPHOCYTE / MEAN CORPUSCULAR HEMOGLOBIN / MEAN CORPUSCULAR HEMOGLOBIN CONCENTRATION / MEAN CORPUSCULAR VOLUME / MONOCYTE / NEUTROPHIL / NUCLEATED RED BLOOD CELLS / PLATELET COUNT: tissue Blood; for ALANINE AMINOTRANSFERASE / ALBUMIN / ALKALINE PHOSPHATASE / ASPARTATE AMINOTRANSFERASE / BLOOD UREA NITROGEN / CARBON DIOXIDE / CHLORIDE / CHOLESTEROL / CREATINE PHOSPHOKINASE / CREATININE / GLUCOSE / LACTATE DEHYDROGENASE / LIPASE / PHOSPHORUS / POTASSIUM / SODIUM / TOTAL BILIRUBIN / TOTAL PROTEIN / URIC ACID: tissue Plasma
[1] = 0 mg/kg, 6 h, vehicle control, dose level Control, time 0.25 day
[2] = 0 mg/kg, 24 h, vehicle control, dose level Control, time 1 day
[3] = 100 mg/kg, 6 h, dose level Low, time 0.25 day
[4] = 100 mg/kg, 24 h, dose level Low, time 1 day

Description: DrugMatrix - Regimen: Single

For CC(C)(Oc1ccc(CCNC(=O)c2ccc(Cl)cc2)cc1)C(=O)O [BEZAFIBRATE], the “ABSOLUTE EOSINOPHIL” value [1] was 0 CELLS/uL, the “ABSOLUTE LYMPHOCYTE” value [1] was 8631 CELLS/uL and the “ABSOLUTE MONOCYTE” value [1] was 171.17 CELLS/uL. For the same molecule, the “ABSOLUTE SEGMENTED NEUTROPHIL” value [1] was 1214.5 CELLS/uL, the BASOPHIL [1] was 0% and the EOSINOPHIL [1] was 0%. The “ERYTHROCYTE COUNT” value [1] was 5.42 x10E6/uL, the HEMATOCRIT [1] was 34.7% and the HEMOGLOBIN [1] was 13.67 G/DL. For the same molecule, the “LEUKOCYTE COUNT” value [1] was 10.02 x10E3/uL, the LYMPHOCYTE [1] was 86.17% and the “MEAN CORPUSCULAR HEMOGLOBIN” value [1] was 25.27 pg. For the same molecule, the “MEAN CORPUSCULAR HEMOGLOBIN CONCENTRATION” value [1] was 39.42 G/DL, the “MEAN CORPUSCULAR VOLUME” value [1] was 64.12 fL and the MONOCYTE [1] was 1.67%. For the same molecule, the NEUTROPHIL [1] was 12.17%, the “NUCLEATED RED BLOOD CELLS” value [1] was 0 /100WBC and the “PLATELET COUNT” value [1] was 1050 x10E3/uL. For the same molecule, the “ALANINE AMINOTRANSFERASE” value [1] was 61 u/L, the ALBUMIN [1] was 4.67 G/DL and the “ALKALINE PHOSPHATASE” value [1] was 312.5 u/L. The “ASPARTATE AMINOTRANSFERASE” value [1] was 117.5 u/L, the “BLOOD UREA NITROGEN” value [1] was 8.67 mg/dL and the “CARBON DIOXIDE” value [1] was 26.33 mmol/L. For the same molecule, the CHLORIDE [1] was 100.5 MEQ/L, the CHOLESTEROL [1] was 72 mg/dL and the “CREATINE PHOSPHOKINASE” value [1] was 283.33 u/L. The CREATININE [1] was 0.28 mg/dL, the GLUCOSE [1] was 172 mg/dL and the “LACTATE DEHYDROGENASE” value [1] was 95.33 u/L. For the same molecule, the LIPASE [1] was 10.17 u/L, the PHOSPHORUS [1] was 9.9 mg/dL and the POTASSIUM [1] was 5.75 MEQ/L. For the same molecule, the SODIUM [1] was 142.4 MEQ/L, the “TOTAL BILIRUBIN” value [1] was 0.3 mg/dL and the “TOTAL PROTEIN” value [1] was 5.43 G/DL. For the same molecule, the “URIC ACID” value [1] was 0.73 mg/dL, the “ABSOLUTE EOSINOPHIL” value [2] was 90.83 CELLS/uL and the “ABSOLUTE LYMPHOCYTE” value [2] was 14725.17 CELLS/uL. For the same molecule, the “ABSOLUTE MONOCYTE” value [2] was 220 CELLS/uL, the “ABSOLUTE SEGMENTED NEUTROPHIL” value [2] was 1080.67 CELLS/uL and the BASOPHIL [2] was 0%. For the same molecule, the EOSINOPHIL [2] was 0.67%, the “ERYTHROCYTE COUNT” value [2] was 5.3 x10E6/uL and the HEMATOCRIT [2] was 33.4%. For the same molecule, the HEMOGLOBIN [2] was 13.4 G/DL, the “LEUKOCYTE COUNT” value [2] was 16.12 x10E3/uL and the LYMPHOCYTE [2] was 91.17%. For the same molecule, the “MEAN CORPUSCULAR HEMOGLOBIN” value [2] was 25.3 pg, the “MEAN CORPUSCULAR HEMOGLOBIN CONCENTRATION” value [2] was 40.12 G/DL and the “MEAN CORPUSCULAR VOLUME” value [2] was 63.05 fL. For the same molecule, the MONOCYTE [2] was 1.5%, the NEUTROPHIL [2] was 6.67% and the “NUCLEATED RED BLOOD CELLS” value [2] was 0 /100WBC. The “PLATELET COUNT” value [2] was 1062 x10E3/uL, the “ALANINE AMINOTRANSFERASE” value [2] was 69 u/L and the ALBUMIN [2] was 4.33 G/DL. For the same molecule, the “ALKALINE PHOSPHATASE” value [2] was 269 u/L, the “ASPARTATE AMINOTRANSFERASE” value [2] was 83.67 u/L and the “BLOOD UREA NITROGEN” value [2] was 14 mg/dL. The “CARBON DIOXIDE” value [2] was 29 mmol/L, the CHLORIDE [2] was 100.83 MEQ/L and the CHOLESTEROL [2] was 66.67 mg/dL. For the same molecule, the “CREATINE PHOSPHOKINASE” value [2] was 355 u/L, the CREATININE [2] was 0.18 mg/dL and the GLUCOSE [2] was 161.33 mg/dL. For the same molecule, the “LACTATE DEHYDROGENASE” value [2] was 123.33 u/L, the LIPASE [2] was 10.67 u/L and the PHOSPHORUS [2] was 8.83 mg/dL. For the same molecule, the POTASSIUM [2] was 6.06 MEQ/L, the SODIUM [2] was 142.45 MEQ/L and the “TOTAL BILIRUBIN” value [2] was 0.2 mg/dL. The “TOTAL PROTEIN” value [2] was 5.72 G/DL, the “URIC ACID” value [2] was 1.27 mg/dL and the “ABSOLUTE EOSINOPHIL” value [3] was 94.83 CELLS/uL. The “ABSOLUTE LYMPHOCYTE” value [3] was 14637.67 CELLS/uL, the “ABSOLUTE MONOCYTE” value [3] was 333.5 CELLS/uL and the “ABSOLUTE SEGMENTED NEUTROPHIL” value [3] was 1884 CELLS/uL. For the same molecule, the BASOPHIL [3] was 0%, the EOSINOPHIL [3] was 0.5% and the “ERYTHROCYTE COUNT” value [3] was 5.71 x10E6/uL. For the same molecule, the HEMATOCRIT [3] was 36.27%, the HEMOGLOBIN [3] was 14.22 G/DL and the “LEUKOCYTE COUNT” value [3] was 16.95 x10E3/uL. For the same molecule, the LYMPHOCYTE [3] was 86.67%, the “MEAN CORPUSCULAR HEMOGLOBIN” value [3] was 24.97 pg and the “MEAN CORPUSCULAR HEMOGLOBIN CONCENTRATION” value [3] was 39.22 G/DL. For the same molecule, the “MEAN CORPUSCULAR VOLUME” value [3] was 63.68 fL, the MONOCYTE [3] was 2% and the NEUTROPHIL [3] was 10.83%. For the same molecule, the “NUCLEATED RED BLOOD CELLS” value [3] was 0 /100WBC, the “PLATELET COUNT” value [3] was 1045.83 x10E3/uL and the “ALANINE AMINOTRANSFERASE” value [3] was 67.33 u/L. For the same molecule, the ALBUMIN [3] was 4.53 G/DL, the “ALKALINE PHOSPHATASE” value [3] was 339 u/L and the “ASPARTATE AMINOTRANSFERASE” value [3] was 90 u/L. For the same molecule, the “BLOOD UREA NITROGEN” value [3] was 8.17 mg/dL, the “CARBON DIOXIDE” value [3] was 18.33 mmol/L and the CHLORIDE [3] was 102.17 MEQ/L. The CHOLESTEROL [3] was 75.5 mg/dL, the “CREATINE PHOSPHOKINASE” value [3] was 329.33 u/L and the CREATININE [3] was 0.19 mg/dL. For the same molecule, the GLUCOSE [3] was 163 mg/dL, the “LACTATE DEHYDROGENASE” value [3] was 253 u/L and the LIPASE [3] was 10.17 u/L. For the same molecule, the PHOSPHORUS [3] was 12.57 mg/dL, the POTASSIUM [3] was 5.78 MEQ/L and the SODIUM [3] was 143.17 MEQ/L. The “TOTAL BILIRUBIN” value [3] was 0.32 mg/dL, the “TOTAL PROTEIN” value [3] was 6.1 G/DL and the “URIC ACID” value [3] was 1.68 mg/dL. The “ABSOLUTE EOSINOPHIL” value [4] was 44 CELLS/uL, the “ABSOLUTE LYMPHOCYTE” value [4] was 13234.17 CELLS/uL and the “ABSOLUTE MONOCYTE” value [4] was 357.67 CELLS/uL. For the same molecule, the “ABSOLUTE SEGMENTED NEUTROPHIL” value [4] was 1847.5 CELLS/uL, the BASOPHIL [4] was 0% and the EOSINOPHIL [4] was 0.33%. For the same molecule, the “ERYTHROCYTE COUNT” value [4] was 5.35 x10E6/uL, the HEMATOCRIT [4] was 34.67% and the HEMOGLOBIN [4] was 13.47 G/DL. The “LEUKOCYTE COUNT” value [4] was 15.48 x10E3/uL, the LYMPHOCYTE [4] was 85% and the “MEAN CORPUSCULAR HEMOGLOBIN” value [4] was 25.28 pg. The “MEAN CORPUSCULAR HEMOGLOBIN CONCENTRATION” value [4] was 38.95 G/DL, the “MEAN CORPUSCULAR VOLUME” value [4] was 64.9 fL and the MONOCYTE [4] was 2.33%. The NEUTROPHIL [4] was 12.33%, the “NUCLEATED RED BLOOD CELLS” value [4] was 0.17 /100WBC and the “PLATELET COUNT” value [4] was 977.33 x10E3/uL. The “ALANINE AMINOTRANSFERASE” value [4] was 83.17 u/L, the ALBUMIN [4] was 4.5 G/DL and the “ALKALINE PHOSPHATASE” value [4] was 333 u/L. For the same molecule, the “ASPARTATE AMINOTRANSFERASE” value [4] was 86.33 u/L, the “BLOOD UREA NITROGEN” value [4] was 13 mg/dL and the “CARBON DIOXIDE” value [4] was 28.83 mmol/L. The CHLORIDE [4] was 101.67 MEQ/L, the CHOLESTEROL [4] was 43.5 mg/dL and the “CREATINE PHOSPHOKINASE” value [4] was 192.33 u/L. For the same molecule, the CREATININE [4] was 0.21 mg/dL, the GLUCOSE [4] was 143.33 mg/dL and the “LACTATE DEHYDROGENASE” value [4] was 106.5 u/L. The LIPASE [4] was 10.17 u/L, the PHOSPHORUS [4] was 9.88 mg/dL and the POTASSIUM [4] was 6.29 MEQ/L. The SODIUM [4] was 146.55 MEQ/L, the “TOTAL BILIRUBIN” value [4] was 0.17 mg/dL and the “TOTAL PROTEIN” value [4] was 5.77 G/DL. For the same molecule, the “URIC ACID” value [4] was 1.02 mg/dL.
